# Results published in patent publication US7423159B2, “Agent for preventing or treating neuropathy” (Takeda Pharmaceutical Company Limited, priority 2002, dated 2008).
row,SMILES,melting point
1,CCOP(=O)(Cc1ccc(NC(=O)/C=C/c2cnn(C)c2-c2ccco2)cc1)OCC,195 to 196 °C
2,"CSCc1ccc(NC(=O)/C=C/c2cnn(C)c2-c2ccc(SC)cc2)cc1 [Example 207, (2E)-3-{1-methyl-5-[4-(methylthio)phenyl]-1H-pyrazol-4-yl}-N-{4-[(methylthio)methyl]phenyl}acrylamide]",145 to 146 °C
3,CCOP(=O)(Cc1ccc(NC(=O)CCc2cnn(C)c2-c2ccc(F)cc2)cc1)OCC,143 to 144 °C
4,COc1ccc(-c2c(/C=C\C(=O)Nc3ccc(CP(=O)(OC)OC)cc3)cnn2C)cc1,172 to 173 °C
5,CCOP(=O)(Cc1ccc(NC(=O)/C=C/c2cn[nH]c2-c2ccc(F)cc2)cc1)OCC,181 to 182 °C
6,CCOP(=O)(Cc1ccc(NC(=O)/C=C/c2c(C)nn(C)c2-c2ccc(F)cc2)cc1)OCC,159 to 160 °C
7,COP(=O)(Cc1ccc(NC(=O)/C=C/c2c(C)nn(C)c2-c2ccc(F)cc2)cc1)OC,195 to 198 °C
8,"Cn1ncc(/C=C/C(=O)Nc2ccc(S(=O)(=O)c3ccccc3)cc2)c1-c1ccc(F)cc1 [Example 206, (2E)-3-[5-(4-Fluorophenyl)-1-methyl-1H-pyrazol-4-yl]-N-[4-(phenylsulfonyl)phenyl]acrylamide]",169 to 172 °C
9,"Cn1ncc(/C=C/C(=O)Nc2ccc(CN3C(=O)CCCC3=O)cc2)c1-c1ccc(F)cc1 [Example 158, (2E)-N-{4-[(2,6-Dioxo-1-piperidinyl)methyl]phenyl}-3-[5-(4-fluorophenyl)-1-methyl-1H-pyrazol-4-yl]acrylamide]",218 to 220 °C
10,COP(=O)(Cc1ccc(NC(=O)/C=C/c2cncn2-c2ccc(F)cc2)cc1)OC,108 to 109 °C
11,"Cn1ncc(/C=C/C(=O)Nc2ccc(CS(=O)(=O)c3ccccc3)cc2)c1-c1ccc(F)cc1 [Example 225, (2E)-3-[5-(4-Fluorophenyl)-1-methyl-1H-pyrazol-4-yl]-N-{4-[(phenylsulfonyl)methyl]phenyl}acrylamide]",223 to 224 °C
12,CCOP(=O)(Cc1ccc(NC(=O)/C=C/c2cnn(C)c2-c2ccccc2F)cc1)OCC,238 to 240 °C
13,CCOP(=O)(Cc1cccc(NC(=O)/C=C/c2cnn(C)c2-c2ccc(F)cc2)c1)OCC,170 to 172 °C
14,COP(=O)(Cc1ccc(NC(=O)/C=C/c2cnn(C)c2-c2ccc(C(F)(F)F)cc2)cc1)OC,212 to 213 °C
15,COP(=O)(Cc1ccc(NC(=O)/C=C/c2cnn(C)c2-c2ccc(Cl)cc2)cc1)OC,209 to 210 °C
16,"O=C(O)Cc1ccc(NC(=O)CCc2cnn(-c3ccccc3)c2-c2ccccc2)cc1 [Example 83, (4-{[3-(1,5-diphenyl-1H-pyrazol-4-yl)propanoyl]amino}phenyl)acetic acid]",199 to 201 °C
17,COP(=O)(Cc1ccc(NC(=O)/C=C/c2snnc2-c2ccc(F)cc2)cc1)OC,196 to 197 °C
18,COP(=O)(Cc1ccc(NC(=O)/C=C/c2cnn(C)c2-c2ccccc2F)cc1)OC,220 to 221 °C

# Results, then the molecule that gave them:
row,melting point,SMILES
1,252 to 253 °C,"Cn1ncc(/C=C/C(=O)Nc2ccc(Cn3ccnn3)cc2)c1-c1ccc(F)cc1 [Example 194, (2E)-3-[5-(4-Fluorophenyl)-1-methyl-1H-pyrazol-4-yl]-N-[4-(1H-1,2,3-triazol-1-ylmethyl)phenyl]acrylamide]"
2,178 to 179 °C,"CCc1nc(Cc2ccc(NC(=O)/C=C/c3cnn(C)c3-c3ccc(F)cc3)cc2)cs1 [Example 99, (2E)-N-{4-[(2-Ethyl-1,3-thiazol-4-yl)methyl]phenyl}-3-[5-(4-fluorophenyl)-1-methyl-1H-pyrazol-4-yl]acrylamide]"
3,203 to 205 °C,"COC(=O)c1ncnn1Cc1ccc(NC(=O)/C=C/c2cnn(C)c2-c2ccc(F)cc2)cc1 [Example 164, Methyl 1-[4-({(2E)-3-[5-(4-fluorophenyl)-1-methyl-1H-pyrazol-4-yl]prop-2-enoyl}amino)benzyl]-1H-1,2,4-triazole-5-carboxylate]"
4,149 to 150 °C,"CCn1nc(Cc2ccc(NC(=O)/C=C/c3cnn(C)c3-c3ccc(F)cc3)cc2)oc1=O [Example 120, (2E)-N-{4-[(4-Ethyl-5-oxo-4,5-dihydro-1,3,4-oxadiazol-2-yl)methyl]phenyl}-3-[5-(4-fluorophenyl)-1-methyl-1H-pyrazol-4-yl]acrylamide]"
5,150 to 151 °C,"Cn1ncc(/C=C/C(=O)Nc2ccc(CC(C)(C)C)cc2)c1-c1ccc(F)cc1 [Example 105, (2E)-3-[5-(4-Fluorophenyl)-1-methyl-1H-pyrazol-4-yl]-N-(4-neopentylphenyl)acrylamide]"
6,201 to 202 °C,"Cn1ncc(/C=C/C(=O)Nc2ccc(CN)cc2)c1-c1ccc(F)cc1 [Example 137, (2E)-N-[4-(aminomethyl)phenyl]-3-[5-(4-fluorophenyl)-1-methyl-1H-pyrazol-4-yl]acrylamide]"
7,98 to 99 °C,"CCc1nc(COc2ccc(NC(=O)/C=C/c3cnn(C)c3-c3ccc(F)cc3)cc2)cs1 [Example 93, (2E)-N-{4-[(2-Ethyl-1,3-thiazol-4-yl)methoxy]phenyl}-3-[5-(4-fluorophenyl)-1-methyl-1H-pyrazol-4-yl]acrylamide]"
8,210 to 211 °C,"Cc1nc(Cc2ccc(NC(=O)/C=C/c3cnn(C)c3-c3ccc(F)cc3)cc2)sc1C [Example 123, (2E)-N-{4-[(4,5-Dimethyl-1,3-thiazol-2-yl)methyl]phenyl}-3-{5-(4-fluorophenyl)-1-methyl-1H-pyrazol-4-yl}acrylamide]"
9,188 to 189 °C,"Cn1ncc(/C=C/C(=O)Nc2ccc(CC(C)(C)O)cc2)c1-c1ccc(F)cc1 [Example 114, (2E)-3-[5-(4-Fluorophenyl)-1-methyl-1H-pyrazol-4-yl]-N-[4-(2-hydroxy-2-methylpropyl)phenyl]acrylamide]"
10,209 to 210 °C,"CN(C)C(=O)Cc1ccc(NC(=O)/C=C/c2cnn(C)c2-c2ccc(F)cc2)cc1 [Example 143, (2E)-N-{4-[2-(dimethylamino)-2-oxoethyl]phenyl}-3-[5-(4-fluorophenyl)-1-methyl-1H-pyrazol-4-yl]acrylamide]"
11,226 to 227 °C,"Cn1ncc(/C=C/C(=O)Nc2ccc(Cn3nnc4ccccc43)cc2)c1-c1ccc(F)cc1 [Example 177, (2E)-N-[4-(1H-1,2,3-Benzotriazol-1-ylmethyl)phenyl]-3-[5-(4-fluorophenyl)-1-methyl-1H-pyrazol-4-yl]acrylamide]"
12,165 to 168 °C,"CSCc1ccc(NC(=O)/C=C/c2cnn(C)c2-c2ccc(F)cc2)cc1 [Example 208, (2E)-3-[5-(4-fluorophenyl)-1-methyl-1H-pyrazol-4-yl]-N-{4-[(methylthio)methyl]phenyl}acrylamide]"
13,117 to 118 °C,"Cn1ncc(/C=C/C(=O)Nc2ccc(CO)cc2)c1-c1ccc(F)cc1 [Example 153, (2E)-3-[5-(4-Fluorophenyl)-1-methyl-1H-pyrazol-4-yl]-N-[4-(hydroxymethyl)phenyl]acrylamide]"
14,150 to 152 °C,"CCc1nc(Cc2ccc(NC(=O)/C=C/c3cnn(C)c3-c3ccc(F)cc3)cc2)no1 [Example 118, (2E)-N-{4-[(5-Ethyl-1,2,4-oxadiazol-3-yl)methyl]phenyl}-3-[5-(4-fluorophenyl)-1-methyl-1H-pyrazol-4-yl]acrylamide]"
15,200 to 201 °C,CCOP(=O)(OCC)C(OC)c1ccc(NC(=O)/C=C/c2cnn(C)c2-c2ccc(F)cc2)cc1 (stereo not shown)
16,183 to 184 °C,"Cc1nc(Cc2ccc(NC(=O)/C=C/c3cnn(C)c3-c3ccc(F)cc3)cc2)no1 [Example 116, (2E)-3-[5-(4-Fluorophenyl)-1-methyl-1H-pyrazol-4-yl]-N-{4-[(5-methyl-1,2,4-oxadiazol-3-yl)methyl]phenyl}acrylamide]"
17,276 to 278 °C,"Cn1ncc(/C=C/C(=O)Nc2ccc(C(N)=O)cc2)c1-c1ccc(F)cc1 [Example 183, 4-({(2E)-3-[5-(4-Fluorophenyl)-1-methyl-1H-pyrazol-4-yl]prop-2-enoyl}amino)benzamide]"
18,164 to 165 °C,"CCc1nnc(Cc2ccc(NC(=O)/C=C/c3cnn(C)c3-c3ccc(F)cc3)cc2)o1 [Example 134, (2E)-N-{4-[(5-ethyl-1,3,4-oxadiazol-2-yl)methyl]phenyl}-3-[5-(4-fluorophenyl)-1-methyl-1H-pyrazol-4-yl]acrylamide]"
19,194 to 195 °C,CCOP(=O)(OCC)C(O)c1ccc(NC(=O)/C=C/c2cnn(C)c2-c2ccc(F)cc2)cc1 (stereo not shown)
20,300 to 305 °C (dec.),"Cn1ncc(/C=C/C(=O)Nc2ccc(S(N)(=O)=O)cc2)c1-c1ccc(F)cc1 [Example 181, (2E)-N-[4-(Aminosulfonyl)phenyl]-3-[5-(4-fluorophenyl)-1-methyl-1H-pyrazol-4-yl]acrylamide]"
21,202 to 203 °C,"Cc1cn(Cc2ccc(NC(=O)/C=C/c3cnn(C)c3-c3ccc(F)cc3)cc2)cn1 [Example 202, (2E)-3-[5-(4-Fluorophenyl)-1-methyl-1H-pyrazol-4-yl]-N-{4-[(4-methyl-1H-imidazol-1-yl)methyl]phenyl}acrylamide]"
22,179 to 183 °C,"Cn1nnnc1[S+]([O-])Cc1ccc(NC(=O)/C=C/c2cnn(C)c2-c2ccc(F)cc2)cc1 (stereo not shown) [Example 220, (2E)-3-[5-(4-Fluorophenyl)-1-methyl-1H-pyrazol-4-yl]-N-(4-{[(1-methyl-1H-tetrazol-5-yl)sulfinyl]methyl}phenyl)acrylamide]"
23,222 to 223 °C,"Cn1ncc(/C=C/C(=O)Nc2ccc(Cn3nc4ccccc4n3)cc2)c1-c1ccc(F)cc1 [Example 179, (2E)-N-[4-(2H-1,2,3-Benzotriazol-2-ylmethyl)phenyl]-3-[5-(4-fluorophenyl)-1-methyl-1H-pyrazol-4-yl]acrylamide]"
24,164 to 165 °C,"CSc1ccc(NC(=O)/C=C/c2cnn(C)c2-c2ccc(F)cc2)cc1 [Example 204, (2E)-3-[5-(4-Fluorophenyl)-1-methyl-1H-pyrazol-4-yl]-N-[4-(methylthio)phenyl]acrylamide]"
25,228 to 229 °C,"CC[S+]([O-])Cc1ccc(NC(=O)/C=C/c2cnn(C)c2-c2ccc(F)cc2)cc1 (stereo not shown) [Example 216, (2E)-N-{4-[(Ethylsulfinyl)methyl]phenyl}-3-[5-(4-fluorophenyl)-1-methyl-1H-pyrazol-4-yl]acrylamide]"
